Source: patent US20050054585A1, “Agent controlling the production of osteoclast formation regulator and method of screening substance capable of controlling the production of osteoclast formation regulator” (priority 2001, published 2005)

Assays:
[1] = system: OPG production in FHs 74 Int cells, ATCC CCL 241; assay: Production of OPG in FHs 74 Int cell culture supernatant, Western Blotting; type: cell-based, human; conditions: 2-day culture with saccharide (1 mg/ml; α,α-trehalose 1, 0.2, 0.04 mg/ml), control without saccharide = 100
Procedure: FHs 74 Int cells, ATCC CCL 241, were inoculated to 96-well plates, with D-MEM medium prepared by adding fetal calf serum, commercialized by GIBCO Bethesda Research Laboratories, Bethesda, Md., USA, to the serum-free culture medium shown in Table 1 below to give a final concentration of 10% (v/v), a final cell density of 1.2×10^4 cells/well, and a final volume of 200 μl; and incubated at 37° C. for 48 hours in a 5% CO2 (V/V) incubator. After completion of the culture, the resultant cells were washed thrice (200 μl×3) with the serum-free D-MEM medium in Table 1. […] Two hundred microliters of each of the saccharide solutions of Nos.1 to 7 were placed in each well of the 96-well plates with the cells, and the cells were incubated at 37 C for two days in a 5% CO2 (v/v) incubator. The culture supernatant in each well was sampled and assayed for the production level of OPG by the Western Blotting method as indicated below using a recombinant human OPG commercialized by R & D Systems Inc., MN, USA. In parallel, a cell culture system with no saccharide, as a control group, was provided and cultured, and the supernatant of the cell culture was sampled on day 2 after the initiation of the cell culture and assayed for the production level of OPG similarly as in the test group.
Fifteen microliters of any of the cell culture supernatants of the test solutions and the control solution, and five microliters of dithiothreitol (DTT) solution for cell treatment were mixed and heated at 99° C. for five minutes. Each of the resulting solutions with heat treatment was developed on SDS-polyacrylamide gel electrophoresis (SDS-PAGE) using multi-gel 4/20 commercialized by Daiichi Pure Chemicals Co., Ltd., Tokyo, Japan; and the gels were transferred to PVDF membranes commercialized by Nihon Millipore Corporation, Tokyo, Japan. The resulting PVDF membranes were blocked with a solution of “BLOCK ACE™”, commercialized by Dainippon Pharmaceutical Co., Ltd., Tokyo, Japan, and contacted with an anti-human OPG antibody as a primary antibody, commercialized by R & D Systems, MN, USA, and an HRP anti-goat IgG antibody, as a secondary antibody, commercialized by Sigma Chemical Co., MO, USA; followed by detecting proteins reacted with these antibodies in accordance with the method described in Experimental Medicine, special edition, titled Handbook for novel recombinant technology, pp. 222-226 (1999). The coloration was effected by using ECL reagent, commercialized by Amersham Pharmacia Biotechnology, IL, USA; exposing “[sequence] ECL™”; and measuring the expression intensity by using “IMAGE MASTER™”, commercialized by Amersham Biosciences, Tokyo, Japan.

ddy mice = conditions: 15 g/kg body weight, by syringe or intubationally with stomach sonde, observed seven days
Procedure: Either of the sterilized saccharide solutions was administered with a syringe or intubationally administered with a stomach sonde to five groups of ddy mice, having 20 to 25 g body weight, consisting of five heads in each group. The mice were observed their conditions for seven days.

[2] = system: OPG production in MG-63 cells, ATCC CRL 1427; assay: Screening for control of the production of OPG in MG-63 cells; type: cell-based, human; conditions: saccharide solutions Nos. 1 to 7, 2-day culture
OPG = assay: Administration test in healthy volunteers, blood OPG by ELISA; type: in vivo, human; conditions: for production level of OPG in blood: 100 ml of 10% (w/v) solution orally after fasting, blood at six hours, ELISA
Procedure: Eighteen healthy volunteers, aged 35 to 50-years-old, were divided into three groups A, B, and C, consisting of three males and three females in each group. […] As a control solution, 1,000 ml of deionized water were sterilized with a membrane filter. These test and control solutions were stored at about 10° C. in a refrigerator until initiating the test. The volunteers in the groups A to C were allowed to fast, except for water, from 10 p.m. at night just before initiating the test, and 100 ml aliquots of the test solution 1, the test solution 2, and the control solution were administered to the groups A, B, and C, respectively, at 6 a.m. on the next day. Thereafter, all the volunteers were allowed to stay indoors calmly and sampled their blood at six hours after the administrations. The sampled bloods were centrifuged at […] for 10 min and quantified for OPG with “RS000805”, a product code number for ELISA system for assaying OPG commercialized by Funakoshi Co., Ltd., Tokyo. Japan.

`OC[C@H]1O[C@@](CO)(O[C@H]2O[C@H](CO)[C@@H](O)[C@H](O)[C@H]2O)[C@@H](O)[C@@H]1O` [sucrose] was tested. Which “expression intensity of OPG versus control cell culture system” value [1] did it give?
Its value is “lower than that for the control cell culture system”.

What about the mortality (ddy mice) of the same compound?
The mortality was “no mouse died”.

And the “production of OPG compared with a control culture system free of saccharide” value [2]?
The value was “remarkably inhibited the production of OPG”.

Which results are given for `OC[C@H]1O[C@H](O[C@H]2[C@H](O)[C@@H](O)C(O)O[C@@H]2CO)[C@H](O)[C@@H](O)[C@@H]1O` (mixture of isomers) [maltose]?
expression intensity of OPG versus control cell culture system [1]: lower than that for the control cell culture system; production of OPG compared with a control culture system free of saccharide [2]: remarkably inhibited the production of OPG

Which results are given for `OC[C@H]1O[C@H](O[C@H]2O[C@H](CO)[C@@H](O)[C@H](O)[C@H]2O)[C@H](O)[C@@H](O)[C@@H]1O` [α,α-trehalose]?
expression intensity of OPG versus control cell culture system [1]: higher than that for the control cell culture system; mortality (ddy mice): no mouse died; production of OPG compared with a control culture system free of saccharide [2]: distinctly enhanced the production of OPG; complaints of abnormality after administration (OPG; healthy volunteers, 100 ml of 10% (w/v) solution orally): no volunteer; production level of OPG in blood (OPG; healthy volunteers): significantly higher than those with the test solution 2 and the control solution

With `O=C[C@H](O)[C@@H](O)[C@H](O)[C@H](O)CO` [D-glucose] as the compound, how does the “expression intensity of OPG versus control cell culture system” value [1] read?
Its value is “lower than that for the control cell culture system”.

And the mortality (ddy mice)?
The mortality was “no mouse died”.

And the “production of OPG compared with a control culture system free of saccharide” value [2]?
Its value is “remarkably inhibited the production of OPG”.

What about the “production level of OPG in blood” value (OPG; healthy volunteers) of the same compound?
Its value is “significantly lower production level of OPG than that of the group C with the control solution”.

And the “complaints of abnormality after administration” value (OPG; human, in vivo, po)?
The value was “no volunteer”.
